For data set [1], the target named is T1, luciferase (Photinus pyralis, UniProt P08659, K549A/L550V/N119G/N50D/S548I).
T1 construct: expressed in transfected cells; host or cells: human hepatic stellate LX-2 cells transfected with pGL4.17-COL1A1P; lysate used
Put plainly: Acute effect on luciferase activity (cell lysate, 2 h). It counts as biochemical. The conditions noted are these: 80 μM, 2-h treatment. Here is the method:
Then, their anti-COL1A1 potencies were verified by testing the half maximal inhibition concentration (IC50) values upon COL1A1 expression expression in LX-2 cells. […] Then, compounds 4i, 4n and 4p with the lower IC50 values were selected as the key compounds for further studies.
(§1) Cells were maintained on Dulbecco’s Modified Eagle’s medium (DMEM), laid on 96-well plate. DMEM medium was supplemented with 10% fetal bovine serum (FBS) at 37 °C humidified atmosphere with 5% CO2. Furthermore, serum-free culture was required until the cells were confluent at 90−95%. 24 h later the cells were treated with a tested compound (40 and 80 μM) for 24 h. The COL1A1 promotor activity was detected by the Bright-Glo luciferase assay system. Alternatively, to test the acute effects of compound on luciferase activity, 24 h later the cells were lysed and the lysate was treated with a tested compound (80 μM) for 2 h, then the luciferase was detected by the Bright-Glo luciferase assay system (Promega, Madison, WI, USA).

Data set [2] relates to COL1A1 promotor. As to the kind of experiment: COL1A1 promotor luciferase reporter gene assay in TGF-β1-treated LX-2 cells. Type of data set: cell-based, human. Conditions: for inhibition at 40 µM / inhibition at 80 µM / IC50: Homo sapiens; for inhibition at 40 µM / inhibition at 80 µM: LX-2, 24 h; for inhibition at 40 µM: 24 h with TGF-β1, read-out: Inhibition Percentage 40 μM (inhibition rate of COL1A1 promotor's activity); for inhibition at 80 µM: 24 h with TGF-β1, read-out: Inhibition Percentage 80 μM (inhibition rate of COL1A1 promotor's activity); for IC50: read-out: IC50 (concentration required to inhibit 50% of COL1A1 promotor's activity). How it is done:
A single luciferase reporter gene detection model was applied to evaluate the inhibitory effects of all target compounds on the expression of COL1A1 promotor in human hepatic stellate LX-2 cells at the concentrations of 40 and 80 μM, taking EGCG as the positive control. The LX-2 cell lines were transfected with COL1A1 promotor luciferase plasmid pGL4.17-COL1A1P for 24 h, then simultaneously treated with TGF-β1 and a tested compound for 24 h.
as §1
On the technique in general: Reporter assays use an easily measured gene product as a stand-in for the process of interest.

Data set [3] in a line: LX-2 cell survival, sulforhodamine B (SRB) assay. Type of data set: cell-based. The conditions noted are these: human, LX-2 cells. Here is the method: LX-2 cell survival was measured by sulforhodamine B (SRB) assay. The cells were seeded in 96-well plates at the density of 2 × 10^4/well and cultured in DMEM/GlutaMAX I medium with 10% fetal bovine serum (FBS) with 5% CO2, 37 °C. The cells were treated by the aloperine derivates for 24 h, washed by PBS for three times. Then the cells were fixed with 10% (wt/vol) trichloroacetic acid for 1 h and stained with SRB for 0.5 h. Subsequently, the protein-bound dye was dissolved in 10 mM Tris base solution after removing excess SRB dye washing repeatedly with 1% (vol/vol) acetic acid, the optical density (OD) was determined at 510 nm with a microplate reader.

Data set [4] in a line: HepG2 cell survival, MTT assay. Conditions: human, HepG2 cells. Type of data set: cell-based. How it is done:
HepG2 cell survival was measured by MTT assay. HepG2 cells, at density of 6x10^3 cells/well in 96-well culture plates, were incubated with the aloperine derivates at various concentrations until the cells at 50% confluence for 24 h. 20 µL of the MTT (5 mg/mL) solution was added to each plate and incubated with 5% CO2, 37 °C for 4 h. Subsequently, withdrawing the culture supernatant containing MTT, 150 µL DMSO was used for dissolving the formazan crystal. The absorbance was measured using a microplate reader at 570 nm.
(Formazan colour is commonly taken as a measure of viable cells.)

A short description of data set [5]: in vivo. The conditions noted are these: both sexes, Kunming, mouse, po. Here is the method: To evaluate the safety profiles of the key compounds 4i, 4n and 4p, an acute toxicity test was performed in Kunming mice. Compound 4i was given orally in a single-dosing experiment at 100, 300 and 400 mg kg^−1, while 4n at 300, 400, 500 mg kg^−1, and 4p at 200, 400, 500 mg kg^−1. The mice were closely monitored for 7 days.
Male and Female Kunming mice with weight of 20.0 ±1.0 g were obtained from the Institute of Laboratory Animal Science (Beijing, China). Animals wer e cared according to the institutional guidelines of the Institute of Medicinal Biotechnology, CAMS&PUMC (IMB-20190610D3), and fed with regular rodent chow and housed in an air conditioned room. The mice were randomly divided into different groups with four male mice and four female mice each. Each compound was given orally in a single-dosing experiment, the dose of 4i was 100, 300 and 400 mg kg^−1, the dose of 4n was 300, 400, 500 mg kg^−1, the dose of 4p was 200, 400, 500 mg kg^−1 (ddH2O as control). The mice were closely monitored for 7 days. Body weight as well as survival was monitored.

For data set [6], the system named is TGFB1 mRNA. Put plainly: RT-PCR of TGFB1 mRNA in LX-2 cells. It counts as cell-based, human. Conditions: TGF-β1 (2 ng/mL) stimulation, 12 μM, 24 h. Here is the method:
(§2) In the absence or presence of TGF-β1 (2 ng/mL) treatment, LX-2 cells were treated with key compounds 4n and 4p at concentrations of 6 μM and 12 μM, or 4i at a concentration of 12 μM, respectively.
Since the stimulation of TGF-β1 provokes the expression of a series of fibrosis genes, for example COL1A1 and TGFB1 [24, 25], the effects of key compounds on TGF-β1 expression were evaluated by RT-PCR and western blot assays. As shown in Figure 2B and Supplementary Table S1, the expression of TGFB1 mRNA was maintained at a low level, and the addition of a key compound seemed to have little effect on its expression.
(§3) LX-2 cells were laid on 6-well plate and cultured in DMEM supplemented with 10% fetal bovine serum (FBS) in a 5% CO2 atmosphere at 37 °C. And serum-free culture was required until the cells reached 90−95% confluence. After 24 h, cells were incubated with 40 and 80 μM concentrations of aloperine derivatives in the presence of 2 ng/mL of TGF-β1 for 24 h. Total RNA of the LX-2 cells was isolated using TRIzol reagent, purified using NucleoSpin RNA Clean-up. Reverse transcription was performed with Transcriptor first strand cDNA synthesis kit. Subsequently, the cDNA levels was determined by ABI 7500 Fast Real-Time PCR System using TaqMan probes of COL1A1, TGF-β1, α-SMA, and GAPDH (sequence not disclosed by ABI) and FastStart Universal Probe master mix (Roche, Indianapolis, IN, USA).

Data set [7] relates to COL1A1 mRNA. As to the kind of experiment: RT-PCR of COL1A1 mRNA in LX-2 cells. It counts as cell-based, human. The conditions noted are these: 24 h. How it is done: as §2
as §3, with “After 24 h, cells were incubated with 40 and 80 μM concentrations of aloperine derivatives in the presence of 2 ng/mL of TGF-β1 for 24 h.” left out

T1 sequence (P08659 whole entry N50D/N119G/S548I/K549A/L550V): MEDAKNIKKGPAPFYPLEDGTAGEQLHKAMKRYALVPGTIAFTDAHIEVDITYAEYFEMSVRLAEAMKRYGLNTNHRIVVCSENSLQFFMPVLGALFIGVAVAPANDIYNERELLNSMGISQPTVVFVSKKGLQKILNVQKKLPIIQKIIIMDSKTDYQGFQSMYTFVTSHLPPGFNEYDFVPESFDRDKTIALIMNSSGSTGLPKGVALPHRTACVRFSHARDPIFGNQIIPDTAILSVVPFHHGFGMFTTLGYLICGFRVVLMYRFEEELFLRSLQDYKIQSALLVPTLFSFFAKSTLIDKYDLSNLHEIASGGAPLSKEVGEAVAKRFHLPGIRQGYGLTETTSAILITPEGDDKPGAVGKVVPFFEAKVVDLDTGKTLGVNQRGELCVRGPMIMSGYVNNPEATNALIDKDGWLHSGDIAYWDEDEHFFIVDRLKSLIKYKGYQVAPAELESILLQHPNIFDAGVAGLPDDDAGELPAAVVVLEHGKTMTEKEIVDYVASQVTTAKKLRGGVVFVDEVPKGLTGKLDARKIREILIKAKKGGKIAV

In general, melting point refers to the temperature of the solid-liquid transition. One may read the inhibition as the relative decrease from the control value, in per cent. A word on the CC50: it is the concentration at which the toxic effect on the cells reaches its halfway point. A high value points to lower toxicity to the cells. Consider `O=C(CN1CCCC2=C[C@H]3C[C@H](CN4CCCC[C@H]34)[C@@H]21)Nc1ccc(-c2cc3ccccc3[nH]2)cc1` [4h, 12N-N′-[4-(1H-Indol-2-yl)phenyl]carbamoylmethyl aloperine], for which the melting point fell in the range of 219 to 221 °C. Also, the “Acute effect on luciferase activity” value in data set [1] is reported as “minimal inhibition”. Besides, in data set [2], the “IC50 (concentration required to inhibit 50% of COL1A1 promotor's activity)” value is on record as “failed to give a dose-dependent inhibition” and the inhibition at 80 µM was 99.9%. The “Inhibition Percentage 40 μM (inhibition rate of COL1A1 promotor's activity)” value in data set [2] (40 μM, 24 h with TGF-β1) was 100.0 ± 0.0%. The inhibition at 40 µM in data set [2] (40 μM) stood at 99.9%. In data set [3], this molecule displayed a cytotoxic concentration (CC50) at 24 h of 7.5 ± 0.4 µM. This molecule yielded a CC50 at 24 h in data set [4] of 18 ± 1.9 µM.

Turning to `O=C(CNS(=O)(=O)c1cc(C(F)(F)F)cc(C(F)(F)F)c1)N1CCCC2=C[C@H]3C[C@H](CN4CCCC[C@H]34)[C@@H]21` [10g, 12N-N′-(3,5-Ditrifluoromethyl)benzenesulfonylaminoacetyl aloperine], the melting point was in the range of 78 to 80 °C. In data set [1], the “Acute effect on luciferase activity” value was “minimal inhibition”. In data set [2] (40 μM), the inhibition at 40 µM stood at 48.4 ± 24.7%. In data set [2], the inhibition at 80 µM came out at 84 ± 0.5% and the IC50 is 27.6 ± 3 µM. Also, the CC50 at 24 h in data set [3] is 68.6 ± 11.7 µM. The molecule further showed a half-maximal cytotoxic concentration (CC50) at 24 h in data set [4] of 113 ± 3.4 µM.

The term LD50 denotes the dose expected to kill half of the subjects tested. High values mean a less toxic substance, low ones a more toxic substance. `O=C(CN1CCCC2=C[C@H]3C[C@H](CN4CCCC[C@H]34)[C@@H]21)Nc1cc(Cl)cc(OC(F)(F)F)c1` [4i, 12N-N′-(3-Chloro-5-trifluoromethoxyphenyl)carbamoylmethyl aloperine]: the “Acute effect on luciferase activity” value in data set [1] is on record as “minimal inhibition”. Moreover, in data set [5], the 50% lethal dose (LD50) at 7 days was found to be 100 mg/kg. Moreover, the “Inhibitory rate of TGFB1 mRNA expression” value in data set [6] is 75.4%. In addition, the inhibition at 40 µM in data set [2] (40 μM) was 99.9%. Also, in data set [2], the inhibition at 80 µM was found to be 99.9%. In data set [2], the IC50 is 8.4 ± 0.3 µM. The values for the CC50 at 24 h in data set [3] and in data set [4] were 19.5 ± 1.8 µM and 22 ± 4.6 µM, respectively. Further, the “Inhibitory rate of COL1A1 transcription (mRNA)” value in data set [7] (TGF-β1 (2 ng/mL) stimulation, 12 μM) stood at 97.4%; in data set [7] (absence of TGF-β1, 12 μM) it was 45%.
